In patent US12024506B2, “Compounds” (Oxford University Innovation Limited, priority 2018, dated 2024):

Molecular target: T1, GST-human KRas166 (G12V) GPPNHP (Homo sapiens, UniProt P01116, G12V)
T1 construct: made in house; host or cells: E. coli C41(DE3)
Experiment: KRas small-molecule screening by SPR (Biacore T200)
Assay type: binding
Conditions: compound 100 uM, 5% DMSO buffer; immobilised GST-KRas166 (G12V) GPPNHP
Procedure: For SPR assays pGEX-KRAS(G12V) plasmid was transformed into E. coli C41(DE3). Bacterial cells were cultured at 37° C. to an OD600 of 0.6 and induced with IPTG (final 0.1 mM) at 18° C. over night. The GST fusion proteins were extracted from bacteria pellets after cell disruption in 140 mM NaCl, 2.7 mM KCl, 10 mM NaH2PO4, 1.8 mM KH2PO4, 1 mM EDTA, 2 mM MgCl2 pH 7.4 and purified by glutathione-sepharose column chromatography (GE Healthcare), eluting with 50 mM Tris-HCl pH8.0, 10 mM reduced glutathione, 1 mM DTT, 2 mM MgCl2. The eluted proteins were dialysed against 50 mM Tris-HCl pH8.0, 1 mM DTT, 2 mM MgCl2 and concentrated to 10 mg/ml using a Biomax-30 ULTRAFREE-15 centrifugal filter device (Millipore). Purified KRAS protein was loaded with GPPNHP as described elsewhere (Pacold et al., 2000). Loaded protein was then purified by gel filtration on a HiLoad Superdex-75 HR column (GE Healthcare) in 1×PBS pH7.4, 5 mM MgCl2 and concentrated for storage.
Protocol for KRas Small-Molecule Screening and Affinity Measurements by SPR
To a previously immobilized CM5 chip (GE Healthcare BR-1005-30) with anti GST antibody via amine coupling method, GST in channel 1 and GST-human KRas166 (G12V) GPPNHP in channel 2 were immobilised. GST was immobilised between 2,000 and 5,000 Response units. KRAS166 (G12V) was immobilized between 10,000 to 15,000 Response Units.
In a 96 well plate, compounds were diluted in […], 5 mM MgCl2 and 5% DMSO Buffer to a final concentration of 100 uM. DCAl was used as positive control. Experiment also included a solvent correction curve for 5% DMSO. Screening and evaluation of the protein immobilization and the compounds screening was done accordingly to the BIACORE T200 control and evaluation software.
Calculations for how many response units are required for a 1:1 ratio of compound/protein interaction are shown below. • Protein immobilisation: 10,000 RU; average fragment 300 Da in size. • Rmax=(MWA/MWL)×RL×SM • MWA is the molecular weight of the analyte in Da • MWL is the molecular weight of the ligand in Da • RL is the immobilization level in RU • SM is the molar stoichiometry (assume 1:1) • Rmax=300/47,500×10,000×1 • Rmax=63 RU. Cell Viability Assay protocols Assay 1

In the case of COc1cccc(-c2cccc3c2O[C@H](CNC(=O)c2ccc(CN4CCN(C)CC4)o2)CO3)n1 [Example 51, 5-(4-Methyl-piperazin-1-ylmethyl)-furan-2-carboxylic acid [(R)-8-(6-methoxy-pyridin-2-yl)-2,3-dihydro-benzo[1,4]dioxin-2-ylmethyl]-amide], the “SPR Response Units” value is reported as 32 Response Units.
CN1CCN(Cc2ccc(C(=O)NCC3COc4cccc(-c5cccc(=O)[nH]5)c4O3)o2)CC1 (centres unmarked) [Example 52, 5-(4-Methyl-piperazin-1-ylmethyl)-furan-2-carboxylic acid [8-(6-oxo-1,6-dihydro-pyridin-2-yl)-2,3-dihydro-benzo[1,4]dioxin-2-ylmethyl]-amide] was tested, and the “SPR Response Units” value was 18 Response Units.
CN(C)CCOc1ccc(C(=O)NCC2COc3cccc(-c4cccc(=O)[nH]4)c3O2)cc1 (centres unmarked) [Example 53, 4-(2-dimethylamino-ethoxy)-N-[8-(6-oxo-1,6-dihydro-pyridin-2-yl)-2,3-dihydro-benzo[1,4]dioxin-2-ylmethyl]-benzamide] was tested, and the “SPR Response Units” value was 52 Response Units.
For CN(C)Cc1cccc(Nc2ccc(-c3cccc4c3OCCO4)nc2)c1 [Example 59, [6-(2,3-Dihydro-benzo[1,4]dioxin-5-yl)-pyridin-3-yl]-(3-dimethylaminomethyl-phenyl)-amine], the “SPR Response Units” value was 79 Response Units.
CN(C)Cc1cccc(Nc2ccc(-c3cccc4c3OCCO4)nn2)c1 [Example 67a, [6-(2,3-Dihydro-benzo[1,4]dioxin-5-yl)-pyridazin-3-yl]-(3-dimethylaminomethyl-phenyl)-amine] was tested, and the “SPR Response Units” value was 31 Response Units.
For c1ccc(CN2CCN(c3cccc4c3OCCO4)CC2)cc1 [Example 71, 1-Benzyl-4-(2,3-dihydro-benzo[1,4]dioxin-5-yl)-piperazine], the “SPR Response Units” value was 14 Response Units.
With COc1nc(-c2cccc3c2OCCO3)ccc1Nc1cccc(CNC(=O)c2cn[nH]c2)c1 [Example 81, 1H-Pyrazole-4-carboxylic acid 3-[6-(2,3-dihydro-benzo[1,4]dioxin-5-yl)-2-methoxy-pyridin-3-ylamino]-benzylamide] the “SPR Response Units” value was 109 Response Units.
COc1nc(-c2cccc3c2OC(CNC(=O)C2CCOCC2)CO3)ccc1NC(=O)CC1CCN(C)CC1 (centres unmarked) [Example 82, Tetrahydro-pyran-4-carboxylic acid (8-{6-methoxy-5-[2-(1-methyl-piperidin-4-yl)-acetylamino]-pyridin-2-yl}-2,3-dihydro-benzo[1,4]dioxin-2-ylmethyl)-amide] was tested, and the “SPR Response Units” value was 12 Response Units.
CN1CCN(Cc2ccc(C(=O)NCC3COc4cccc(-c5ccc(NCC6CCOCC6)cn5)c4O3)o2)CC1 (centres unmarked) [Example 83, 5-(4-Methyl-piperazin-1-ylmethyl)-furan-2-carboxylic acid (8-{5-[(tetrahydro-pyran-4-ylmethyl)-amino]-pyridin-2-yl}-2,3-dihydro-benzo[1,4]dioxin-2-ylmethyl)-amide] was tested, and the “SPR Response Units” value was 16 Response Units.
For CN1CCC(COc2ccc(-c3cccc4c3OCCO4)nn2)CC1 [Example 85, 3-(2,3-Dihydro-benzo[1,4]dioxin-5-yl)-6-(1-methyl-piperidin-4-ylmethoxy)-pyridazine], the “SPR Response Units” value was 20 Response Units.
With COc1nc(-c2cccc3c2OCCO3)ccc1NC1CCN(C)C1 (centres unmarked) [Example 86, [6-(2,3-Dihydro-benzo[1,4]dioxin-5-yl)-2-methoxy-pyridin-3-yl]-(1-methyl-pyrrolidin-3-yl)-amine] the “SPR Response Units” value was 17 Response Units.
In the case of COc1nc(-c2cccc3c2O[C@H](CNC(=O)c2ccc(CN4CCN(C)CC4)o2)CO3)ccc1N [Example 87, 5-(4-Methyl-piperazin-1-ylmethyl)-furan-2-carboxylic acid [(R)-8-(5-amino-6-methoxy-pyridin-2-yl)-2,3-dihydro-benzo[1,4]dioxin-2-ylmethyl]-amide], the “SPR Response Units” value is reported as 56 Response Units.
For COc1nc(-c2cccc3c2OC(CNC(=O)C2CCOCC2)CO3)ccc1Nc1cccnc1 (centres unmarked) [Example 88, Tetrahydro-pyran-4-carboxylic acid {8-[6-methoxy-5-(pyridin-3-ylamino)-pyridin-2-yl]-2,3-dihydro-benzo[1,4]dioxin-2-ylmethyl]-amide], the “SPR Response Units” value was 161 Response Units.
With COc1nc(-c2cccc3c2OC(CNC(=O)C2CCOCC2)CO3)ccc1Nc1ccc(C(=O)NCCO)cc1 (centres unmarked) [Example 89, Tetrahydro-pyran-4-carboxylic acid (8-{5-[4-(2-hydroxy-ethylcarbamoyl)-phenylamino]-6-methoxy-pyridin-2-yl}-2,3-dihydro-benzo[1,4]dioxin-2-ylmethyl)-amide] the “SPR Response Units” value was 132 Response Units.
COc1nc(-c2cccc3c2OC(CNC(=O)C2CCOCC2)CO3)ccc1Nc1cccc(CN2CCN(C(C)=O)CC2)c1 (centres unmarked) [Example 90, Tetrahydro-pyran-4-carboxylic acid (8-{5-[3-(4-acetyl-piperazin-1-ylmethyl)-phenylamino]-6-methoxy-pyridin-2-yl}-2,3-dihydro-benzo[1,4]dioxin-2-ylmethyl)-amide] was tested, and the “SPR Response Units” value was 140 Response Units.
With CN1CCC(NC(=O)c2ccc(Nc3ccc(-c4cccc5c4OC(CNC(=O)C4CCOCC4)CO5)nc3)cc2)CC1 (centres unmarked) [Example 91] the “SPR Response Units” value was 66 Response Units.
CN1CCC(CC(=O)Nc2ccc(-c3cccc4c3O[C@H](CNC(=O)C3CCOCC3)CO4)nc2)CC1 [Example 92, Tetrahydro-pyran-4-carboxylic acid ((R)-8-{5-[2-(1-methyl-piperidin-4-yl)-acetylamino]-pyridin-2-yl}-2,3-dihydro-benzo[1,4]dioxin-2-ylmethyl)-amide] was tested, and the “SPR Response Units” value was 7 Response Units.
For CN(C)Cc1cccc(Nc2ccc(-c3cccc4c3OC(CNC(=O)C3CCOCC3)CO4)nc2)c1 (centres unmarked) [Example 93], the “SPR Response Units” value was 39 Response Units.
In the case of COc1nc(-c2cccc3c2OC(CNC(=O)C2CCOCC2)CO3)ccc1Nc1ccc(C(=O)N(C)C)cc1 (centres unmarked) [Example 94, Tetrahydro-pyran-4-carboxylic acid {8-[5-(4-dimethyl-carbamoyl-phenylamino)-6-methoxy-pyridin-2-yl]-2,3-dihydro-benzo[1,4]dioxin-2-ylmethyl}-amide], the “SPR Response Units” value is reported as 111 Response Units.
For COc1nc(-c2cccc3c2OCCO3)ccc1NC1CCN(C)CC1 [Example 98, [6-(2,3-Dihydro-benzo[1,4]dioxin-5-yl)-2-methoxy-pyridin-3-yl]-(1-methyl-piperidin-4-yl)-amine], the “SPR Response Units” value was 21 Response Units.
For COc1nc(-c2cccc3c2OCCO3)ccc1NC1CCN(C(C)=O)CC1 [Example 99, 1-{4-[6-(2,3-Dihydro-benzo[1,4]dioxin-5-yl)-2-methoxy-pyridin-3-ylamino]-piperidin-1-yl}-ethanone], the “SPR Response Units” value was 33 Response Units.
CN(C)CCOc1ccc(C(=O)NCC2COc3cccc(-c4cc(N5CCOCC5)ccn4)c3O2)cc1 (centres unmarked) [Example 102, 4-(2-Dimethylamino-ethoxy)-N-[8-(4-morpholin-4-yl-pyridin-2-yl)-2,3-dihydro-benzo[1,4]dioxin-2-ylmethyl]-benzamide] was tested, and the “SPR Response Units” value was 126 Response Units.
CN(C)CCOc1ccc(C(=O)NCC2COc3cccc(-c4cccc(N(C)C)n4)c3O2)cc1 (centres unmarked) [Example 103, 4-(2-Dimethylamino-ethoxy)-N-[8-(6-dimethylamino-pyridin-2-yl)-2,3-dihydro-benzo[1,4]dioxin-2-ylmethyl]-benzamide] was tested, and the “SPR Response Units” value was 64 Response Units.
For CN(C)CCOc1ccc(C(=O)NCC2COc3cccc(-c4ccccn4)c3O2)cc1 (centres unmarked) [Example 104, 4-(2-Dimethylamino-ethoxy)-N-(8-pyridin-2-yl-2,3-dihydro-benzo[1,4]dioxin-2-ylmethyl)-benzamide], the “SPR Response Units” value was 35 Response Units.
With CN1CCN(Cc2ccc(C(=O)NCC3COc4cccc(-c5ccc(OCCN6CCOCC6)cn5)c4O3)o2)CC1 (centres unmarked) [Example 107, 5-(4-methyl-piperazin-1-ylmethyl)-furan-2-carboxylic acid {8-[5-(2-morpholin-4-yl-ethoxy)-pyridin-2-yl]-2,3-dihydro-benzo[1,4]dioxin-2-ylmethyl}-amide] the “SPR Response Units” value was 9 Response Units.
With OCC1COc2cccc(-c3ccc(OCCN4CCOCC4)cn3)c2O1 (centres unmarked) [Example 110, {8-[5-(2-Morpholin-4-yl-ethoxy)-pyridin-2-yl]-2,3-dihydro-benzo[1,4]dioxin-2-yl}-methanol] the “SPR Response Units” value was 4.6 Response Units.
